Assay results reported in US20040048262A1, “Methods for determining the bilogical effects of compounds on gene expression” (priority 2003, published 2004).

Tested on: PC12 cells
Experiment: Transcription factor DNA-binding activity profile, nuclear extracts of NGF-treated PC12 cells, random 16-mer library (FIG. 2)
Type: cell-based
Settings: 200 ng/ml NGF-beta, 5 hr, vs untreated
From the text: FIG. 2 is a bar graph showing the effects of nerve growth factor (NGF) treatment on transcription factor DNA-binding activities in PC12 cells. The identity of the specific transcription factors whose binding activity is being detected are listed on the X-axis. The level of DNA binding activity for each individual transcription factor is depicted as a percentage of the total number of DNA fragments sequenced from the “bound” fraction of the DNA library used in the binding reactions and containing the cognate site for that particular protein (shown as a numerical value on the Y-axis). The level of binding activities for all the proteins detected as a result of their cognate binding sites being found in the “bound” fraction of the DNA library constitutes the transcription factor activity profiles for PC12 cells and PC12 cells following NGF treatment. The profiles generated provide a useful indicator of the mechanism of action of the compound being used for the cell treatrment. For example, if the mechanism of action of NGF was to increase the expression of a particular cell surface receptor, then one would expect to see altered levels of binding activities for those transcription factors known to regulate the expression of the gene that encodes that particular receptor in the NGF-treated sample. If one did indeed see altered binding activity levels of factors known to regulate a particular receptor gene or set of genes, then one could immediately assay for those changes in gene expression as a result of inference from the transcription factor activity profile.
In a specific example, PC12 cells were grown in high glucose DMEM containing 10% horse serum and 5% fetal calf serum. For differentiation, cells were transferred to serum-free medium containing N-2 Supplement (Life Technologies) and 200 ng/ml Nerve Growth Factor-beta (Sigma). Cells were harvested after 5 hr and nuclear extracts were prepared as described above. A positive response of the PC12 cells to NGF was monitored by EMSA of AP-1 activity.
In this example, nuclear extracts were incubated with a random 16-mer library and the DNA present in specific protein/DNA complexes was isolated and sequenced. Known transcription factor binding sites present in the DNA sequences were counted as described in Example 1 and the data generated are presented in FIG. 2 in the same mainer as in Example 2. Thus, the bars indicate the percentage of DNA fragments containing selected cis sites that were isolated in binding reactions containing nuclear extracts from either untreated (white bars) or NGF-treated (black bars) PC12 cells. It can be seen that NGF-treatment leads to an increase in binding activity for AP 1, ATF, TCF11 (among others), while for example E2F and RFX1 activities are reduced after NGF treatment.

**Q.** How did the “change in E2F activity after NGF treatment” value turn out when NGF: Nerve Growth Factor-beta (Sigma) was run?
**A.** reduced

**Q.** And the “change in RFX1 activity after NGF treatment” value?
**A.** reduced

**Q.** And the “change in binding activity for AP 1 after NGF treatment” value?
**A.** increase

**Q.** And the “change in binding activity for ATF after NGF treatment” value?
**A.** increase

**Q.** And the “change in binding activity for TCF11 after NGF treatment” value?
**A.** increase
